From patent publication US20030232868A1, “Cyclic carboxylic acids as integrin antagonists” (priority 2000, published 2003)
Like-named read-outs stand apart in the source and are kept apart here.

Legend:
[1] = tested on: adhesion of Ramos cells to VCAM-1; assay: Adhesion of Ramos cells to immobilized VCAM-1 (domains 1-3) (Ramos—VCAM-1 assay); format: cell-based; details: Homo sapiens
Source text: (§1) In Vitro Assay: Adhesion of Jurkat/Ramos Cells to Immobilized VCAM-1 (Domains 1-3)
(§2) Preparation of VCAM-1 (Extracellular Domains 1-3)
(§3) Complementary DNA (cDNA) encoding 7 domain form of VCAM-1 (GenBank accession #M60335) was obtained using Rapid-Screen™ cDNA library panels (OriGene Technologies, Inc) at Takara Gene Analysis Center (Shiga, Japan). The primers used were 5′-CCAAGGCAGAGTACGCAAAC-3′ (sense) and 5′-TGGCAGGTATTATTAAGGAG-3′ (antisense). PCR amplification of the 3 domain VCAM-1 cDNA was perform using Pfu DNA polymerase (Stratagene) with the following sets of primers: (U-VCAMd1-3) 5′-CCATATGGTACCTGATCAATTTAAAATCGAGACCACCCCAGAA-3′; (L-VCAMd1-3) 5′-CCATATAGCAATCCTAGGTCCAGGGGAGATCTCAACAGTAAA-3′. PCR cycle was 94° C. for 45 sec. 55° C. for 45 sec, 72° C. for 2 min, repeating 15 cycles. After the purification of the PCR product, the fragment was digested with KpnI-AvrII. The digested fragment was ligated into pBluescript IISK(−) (Strategene), which was linearized by digesting with KpnI-XhoI. The ligation was followed by transformation to a Dam/Dcm methylase-free E. coli strain SCS110 (Strategene) to create the donor plasmid pHH7. To direct VCAM-1 molecule into the insect cell secretory pathway, the VCAM-1 coding sequence was fused to signal peptide sequence of honeybee melittin. The resulting melittin-VCAM fusion was placed in correct orientation to the baculovirus polyhedrin promoter. Baculovirus transfer vector containing first 3-domain form VCAM-1 (pH 10) was constructed by ligation of 0.9 kb fragment from AvrII/Klenow/BclI digests of pH 7 into SalI/Klenow/BamHI digests of pMelBacB Invitrogen). Recombinant baculovirus was generated by using Bac-N-Blue™ Transfection kit (Invitrogen) according to the manufacture's instruction. The recombinant virus was amplified by infection to High-Five™ insect cells for 5-6 days, and virus titer was determined by plaque assay.
(§4) High-Five™ insect cells were pelleted in a 225 ml conical tube by centrifugation at 1000 rpm for 5 min. After discarding the supernatant, the pellet was resuspended in 1.5×10^9 pfu (MOI=5) of high-titer virus solution, followed by incubation for 1.5 hours at room temperature. The cells were pelleted again and washed once in fresh Express Five™ serum free medium. The cells were pelleted again and finally, resuspended in 200 ml of fresh Express Five TM medium, transferred to a 1,000 ml shaker flask, and incubated in a shaker at 27° C., 130 rpm, for 48 hours before the culture supernatant was collected. The purification of 3-domain form of VCAM-1 from the culture supernatant was performed by one-step anion exchange chromatography. Protein concentration was determined by using Coomassie protein assay reagent (Pierce) according to the manufacture's instruction.
(§5) Preparation of VCAM-1 Coated Microtiter Plates
(§6) Recombinant human VCAM-1 (extracellular domains 1-3) was dissolved at 1.0 μg/1 ml in PBS. Each well of the microtiter plates (Nalge Nunc International, Fluoro-nunc Cert, 437958) was coated with 100 μl of substrate or for background control with buffer alone for 15 hours at 4 C. After discarding the substrate solution, the wells were blocked using 150 μl per well of block solution Kirkegaard Perry Laboratories, 50-61-01) for 90 minutes. The plate was washed with wash buffer containing 24 mM Tris-HCl (pH 7.4), 137 mM NaCl, […] and 2 MM MnCl2 just before addition of the assay.
In Vitro Assay using Ramos Cells
Preparation of Fluorescence Labeled Ramos Cells:
(§7) Ramos cells (American Type Culture Collection, Clone CRL-1596) were cultured in RPMI 1640 medium (Nikken Bio Medical Laboratory, CM1101) supplemented with 10% fetal bovine serum (Hyclone, A-1119-L), 100 U/ml penicilin (Gibco BRL, 15140-122) and 100 μg/ml streptomycin (Gibco BRL, 15140-122) in a humidified incubator at 37° C. with 5% CO2. […]

[2] = tested on: adhesion of Jurkat cells to VCAM-1; assay: Adhesion of Jurkat cells to immobilized VCAM-1 (domains 1-3) (Jurkat—VCAM-1 assay); format: cell-based, human
Source text: as §1, §2, §3, §4, §5, §6
In Vitro Assay using Jurkat Cells
Preparation of Fluorescence Labeled Jurkat Cells:
as §7, with “Jurkat” for “Ramos”, “E6-1, ATCC TIB-152)” for “CRL-1596)”, “RPM” for “RPMI”

melting point | SMILES | also measured
158 to 160 °C | Cc1ccccc1NC(=O)Nc1ccc(CC(=O)N[C@@H](CC(C)C)C(=O)Nc2ccc(C(=O)O)c(Oc3ccccc3)c2)cc1 [Example 49] | IC50 ([1]; Ramos, 1 h): < 0.5 µM
188 to 190 °C | Cc1ccccc1NC(=O)Nc1ccc(CC(=O)N[C@@H](CC(C)C)C(=O)Nc2cc(C(=O)O)cc([N+](=O)[O-])c2)cc1 [Example 51] | IC50 ([1]; Ramos, 1 h): 2 to 10 µM
175 °C (dec.) | Cc1ccccc1NC(=O)Nc1ccc(CC(=O)N[C@@H](CC(C)C)C(=O)NC2CCC(C(=O)O)CC2)cc1 (some centres unmarked) [Example 60] | IC50 ([2]; Homo sapiens, Jurkat, 1 h): 2 to 10 µM
187 to 189 °C | Cc1ccccc1NC(=O)Nc1ccc(CC(=O)N[C@@H](CC(C)C)C(=O)Nc2nnc(CC(=O)O)s2)cc1 [Example 55] | IC50 ([2]; Homo sapiens, Jurkat, 1 h): 2 to 10 µM
210 to 218 °C | COCCCN(CC(=O)Nc1ccc(C(=O)O)cc1)C(=O)Cc1ccc(NC(=O)Nc2ccccc2C)cc1 [Example 59] | IC50 ([1]; Ramos, 1 h): < 0.5 µM
168 to 169 °C | Cc1ccccc1NC(=O)Nc1ccc(CC(=O)N[C@@H](CCCCN)C(=O)Nc2ccc(C(=O)O)cc2)cc1.O=C(O)C(F)(F)F [Example 58] | IC50 ([1]; Cell Type Ramos, adhesion to VCAM-1 coated plates, 1 hour at 37 C, IC50 value ranges, read-out: IC50): < 0.5 µM
164 to 169 °C | Cc1ccccc1NC(=O)Nc1ccc(CC(=O)N[C@@H](CC(C)C)C(=O)Nc2ccc(C(=O)O)c(Nc3ccccc3)c2)cc1 [Example 48] | IC50 ([1]; Ramos, 1 h): < 0.5 µM
172 to 174 °C | Cc1ccccc1NC(=O)Nc1ccc(CC(=O)N[C@@H](CC(C)C)C(=O)N(C)c2nc(CC(=O)O)cs2)cc1 [Example 56] | IC50 ([1]; Ramos, 1 h): > 10 µM
178 to 180 °C | Cc1ccccc1NC(=O)Nc1ccc(CC(=O)N[C@@H](CC(C)C)C(=O)Nc2nc(CC(=O)O)cs2)cc1 [Example 54] | IC50 ([2]; Homo sapiens, Jurkat, 1 h): 2 to 10 µM
206 to 208 °C | Cc1ccccc1NC(=O)Nc1ccc(CC(=O)N[C@@H](CC(C)C)C(=O)Nc2ccc(C(C(=O)O)C3CCCC3)cc2)cc1 (some centres unmarked) [Example 53] | IC50 ([2]; Homo sapiens, Jurkat, 1 h): 2 to 10 µM

The next lines start with the compound.

SMILES | melting point | also measured
Cc1ccccc1NC(=O)Nc1ccc(CC(=O)N[C@@H](CC(C)C)C(=O)Nc2ccc(C(=O)O)c(Cl)c2)cc1 [Example 47] | 178 to 180 °C | IC50 ([1]; Ramos, 1 h): < 0.5 µM
Cc1ccccc1NC(=O)Nc1ccc(CC(=O)N[C@@H](CC(C)C)C(=O)Nc2ccccc2CC(=O)O)cc1 [Example 42] | 186 to 190 °C | IC50 ([2]; Homo sapiens, Jurkat, 1 h): > 10 µM
CCOC(=O)c1ccc(NC(=O)[C@H](CC(C)C)NC(=O)Cc2ccc(NC(=O)Nc3ccccc3C)cc2)c(OC)c1 [Example 22] | 139 to 141 °C | –
COc1cc(C(=O)O)ccc1NC(=O)[C@H](CC(C)C)NC(=O)Cc1ccc(NC(=O)Nc2ccccc2C)cc1 [Example 46] | 138 to 142 °C | IC50 ([1]; Ramos, 1 h): > 10 µM
COC(=O)c1cc(Cl)c(NC(=O)[C@H](CC(C)C)NC(=O)Cc2ccc(NC(=O)Nc3ccccc3C)cc2)cc1Cl [Example 26] | 204 to 205 °C | –
CCOC(=O)C(c1ccc(NC(=O)[C@H](CC(C)C)NC(=O)Cc2ccc(NC(=O)Nc3ccccc3C)cc2)cc1)C1CCCC1 (some centres unmarked) [Example 30] | 186 to 189 °C | –
COC(=O)Cc1cccc(NC(=O)[C@H](CC(C)C)NC(=O)Cc2ccc(NC(=O)Nc3ccccc3C)cc2)c1 [Example 19] | 200 °C | –
Cc1ccccc1NC(=O)Nc1ccc(CC(=O)N[C@@H](CC(C)C)C(=O)NC2CCCCC2C(=O)O)cc1 (some centres unmarked) [Example 61] | – | IC50 ([1]; Ramos, 1 h): 2 to 10 µM
Cc1ccccc1NC(=O)Nc1ccc(CC(=O)N[C@@H](CCCCNC(=O)OCc2ccccc2)C(=O)Nc2ccc(C(=O)OCc3ccccc3)cc2)cc1 [Example 35] | 188 to 189 °C | –
COC(=O)c1ccc(NC(=O)[C@H](CC(C)C)NC(=O)Cc2ccc(NC(=O)Nc3ccccc3C)cc2)cc1Oc1ccccc1 [Example 25] | 191 to 195 °C | –
CCOC(=O)c1ccc(NC(=O)[C@H](CC(C)C)NC(=O)Cc2ccc(NC(=O)Nc3ccccc3C)cc2)c(Cl)c1 [Example 21] | 163 to 165 °C | –
COCCCN(CC(=O)Nc1ccc(C(=O)OC)cc1)C(=O)Cc1ccc(NC(=O)Nc2ccccc2C)cc1 [Example 36] | 197 to 198 °C | –
COC(=O)c1ccc(NC(=O)[C@H](CC(C)C)NC(=O)Cc2ccc(NC(=O)Nc3ccccc3C)cc2)cc1Nc1ccccc1 [Example 24] | 205 to 206 °C | –
COC(=O)c1cccc(NC(=O)[C@H](CC(C)C)NC(=O)Cc2ccc(NC(=O)Nc3ccccc3C)cc2)c1 [Example 16] | 220 °C | –
COC(=O)c1ccccc1NC(=O)[C@H](CC(C)C)NC(=O)Cc1ccc(NC(=O)Nc2ccccc2C)cc1 [Example 15] | 170 °C | –
COC(=O)Cc1ccccc1NC(=O)[C@H](CC(C)C)NC(=O)Cc1ccc(NC(=O)Nc2ccccc2C)cc1 [Example 18] | 218 °C | –
Cc1ccccc1NC(=O)Nc1ccc(CC(=O)N[C@@H](CC(C)C)C(=O)Nc2ccc(CC(=O)O)cc2)cc1 [Example 44] | 206 °C | IC50 ([2]; Homo sapiens, Jurkat, 1 h): 2 to 10 µM
Cc1ccccc1NC(=O)Nc1ccc(CC(=O)N[C@@H](CC(C)C)C(=O)Nc2ccccc2C(=O)O)cc1 [Example 39] | 190 °C | IC50 ([2]; Homo sapiens, Jurkat, 1 h): > 10 µM
Cc1ccccc1NC(=O)Nc1ccc(CC(=O)N[C@@H](CC(C)C)C(=O)Nc2ccc(C(=O)O)cc2Cl)cc1 [Example 45] | 154 to 158 °C | IC50 ([2]; Cell Type Jurkat, adhesion to VCAM-1 coated plates, 1 hour at 37 C, IC50 value ranges): A-B
Cc1ccccc1NC(=O)Nc1ccc(CC(=O)N[C@@H](CC(C)C)C(=O)N2CCCc3cc(C(=O)O)ccc32)cc1 [Example 52] | – | IC50 ([1]; Ramos, 1 h): 2 to 10 µM
COC(=O)Cc1ccc(NC(=O)[C@H](CC(C)C)NC(=O)Cc2ccc(NC(=O)Nc3ccccc3C)cc2)cc1 [Example 20] | 222 °C | –
Cc1ccccc1NC(=O)Nc1ccc(CC(=O)N[C@@H](CC(C)C)C(=O)Nc2ccc(C(=O)O)cc2)cc1 [Example 41] | 219 to 223 °C | IC50 ([2]; Homo sapiens, Jurkat, 1 h): < 0.5 µM
Cc1ccccc1NC(=O)Nc1ccc(CC(=O)N[C@@H](CC(C)C)C(=O)Nc2cccc(C(=O)O)c2)cc1 [Example 40] | 220 °C | IC50 ([2]; Homo sapiens, Jurkat, 1 h): > 10 µM
Cc1ccccc1NC(=O)Nc1ccc(CC(=O)N[C@@H](CC(C)C)C(=O)Nc2cccc(CC(=O)O)c2)cc1 [Example 43] | 178 to 181 °C | IC50 ([2]; Homo sapiens, Jurkat, 1 h): 0.5 to 2 µM
COC(=O)c1ccc(NC(=O)[C@H](CC(C)C)NC(=O)Cc2ccc(NC(=O)Nc3ccccc3C)cc2)cc1 [Example 17, Methyl 4-([({4-[(2-toluidinocarbonyl)amino]phenyl}acetyl)L-leucin]amino)benzoate] | 250 to 252 °C | –
CCOC(=O)Cc1csc(N(C)C(=O)[C@H](CC(C)C)NC(=O)Cc2ccc(NC(=O)Nc3ccccc3C)cc2)n1 [Example 33] | 125 to 130 °C | –
Cc1ccccc1NC(=O)Nc1ccc(CC(=O)N[C@@H](CC(C)C)C(=O)Nc2ccc3[nH]c(C(=O)O)cc3c2)cc1 [Example 57] | – | IC50 ([2]; Homo sapiens, Jurkat, 1 h): > 10 µM
